According to PMC12040169 (PLOS Biology, 2025):

Assay: in vitro
Conditions: human, hela cells

Row | SMILES | viability at 28.5 h, 10 µM
1 | O=C(CC(c1ccccc1)c1c(O)c2ccccc2oc1=O)c1ccc(-c2ccc(Br)cc2)cc1 (stereo not drawn) [CBK260877] | 91.8%

Same assay, conditions: human, hela cells, % viability

Row | SMILES | viability at 28.5 h, 10 µM
2 | O=S(=O)(Oc1ccccc1)c1ccc2c(c1)Cc1cc(S(=O)(=O)Oc3ccccc3)ccc1-2 [CBK231928] | 88.5%
3 | O=S(=O)(NCCSCc1ccco1)c1ccc(Cl)cc1 [CBK232206] | 85.6%
4 | O=C(O)COCC(=O)N1CCN(C(c2ccccc2)c2ccccc2)CC1 [CBK232579] | 84.3%
5 | Cc1nc(C)c(C(=O)C2=C(O)C(=O)N(CCCN3CCOCC3)C2c2ccncc2)s1 (stereo not drawn) [CBK235187] | 97.3%
6 | COc1ccc(NCc2cc(=O)oc3cc4c(cc23)CCC4)cn1 [CBK235362] | 88%
7 | Cn1c(=O)c2c(nc(CN3CCC(Cc4ccccc4)CC3)n2CC(=O)c2ccccc2)n(C)c1=O [CBK236846] | 88%
8 | Cc1nc(CN2CCN(c3ccc4nnc(C(F)(F)F)n4n3)CC2)cs1 [CBK239750] | 95.1%
9 | N#Cc1nc(-c2ccco2)oc1N1CCN(C(=O)c2cc3c(s2)CCCCC3)CC1 [CBK240763] | 93.9%
10 | O=C(NC1CCN(c2ncccn2)CC1)c1ccc[nH]c1=S [CBK241695] | 83.9%
11 | CCS(=O)(=O)N1CCC(NC(=O)NC(C)c2ccccc2Cl)CC1 (stereo not drawn) [CBK242304] | 95.3%
12 | COc1cc(Br)c(OC)c(C(=O)N(C)Cc2cnn(C)c2)c1 [CBK244011] | 102%
13 | CC(=O)Nc1nc(C(=O)N2CCOC(c3ccc(F)cc3)C2)cs1 (stereo not drawn) [CBK244238] | 99.3%
14 | Cc1ccc(C(=O)NCCNc2cnccn2)cc1S(C)(=O)=O [CBK246280] | 103%
15 | Cc1c(Cl)cccc1NC(=O)c1cnc2sccn2c1=O [CBK246518] | 115%
16 | Cc1cc(Br)ccc1NC(=O)c1cnc2sccn2c1=O [CBK246520] | 112%
17 | CCc1noc(C)c1C(=O)NC(C)c1cc2ccccc2o1 (stereo not drawn) [CBK247065] | 87.1%
18 | CCOc1cc2c(cc1NC(=O)CN(c1cccc(Cl)c1)S(C)(=O)=O)OC(C)C2 (stereo not drawn) [CBK248179] | 94.6%
19 | Cc1nn(CC(C)C)c(Cl)c1C(=O)Nc1nc2ccc(F)cc2s1 [CBK252188] | 90.4%

Row | SMILES | viability at 28.5 h, 10 µM
20 | O=C(Cn1cnc2ccc(F)cc2c1=O)N1CCOC2CCCCC21 (stereo not drawn) [CBK253316] | 80.5%
21 | CN(CC(=O)NCc1ccco1)C1CCCCCC1 [CBK254305] | 97.3%
22 | CCOc1ncccc1NC(=O)Cc1cccc(OC)c1 [CBK256406] | 94.8%
23 | Cc1cc(NC(=O)NC2CCSc3ccccc32)no1 (stereo not drawn) [CBK259296] | 74.8%
24 | N#Cc1cccc(C(=O)NCCc2nnc3n2CCCCC3)c1 [CBK259813] | 105%
25 | Cc1[nH]c2ccccc2c1C(=O)CCC(=O)O [CBK260871] | 95.5%
26 | Oc1n[nH]c2c1CCC2 [CBK260873] | 95.4%
27 | Cc1n[nH]c(NN)c1Cl [CBK260876C] | 89.5%
28 | CC(=O)O[B-]1(OC(C)=O)N(c2ccc(S(N)(=O)=O)cc2)N=C(c2ccccc2)N=[N+]1c1ccccc1 [CBK260879] | 87.1%
29 | C(=N\c1cccc2c(/N=C/c3c[nH]c4ccccc34)cccc12)/c1c[nH]c2ccccc12 [CBK260887] | 95.8%
30 | Oc1ccc2[nH]cc(CCNC(c3ccccc3)(c3ccccc3)c3ccccc3)c2c1 [CBK260891] | 103%
31 | O=C(CSS(=O)(=O)O)NCc1ccccc1 [CBK260897N] | 105%
32 | COc1ccc2sc(C)[n+](CCC(=O)O)c2c1 [CBK260899B] | 83.5%
33 | O=S(=O)(O)CCCSc1nc2ccccc2s1 [CBK260900N] | 100%
34 | O=C(O)CNc1ccccc1C(=O)O [CBK260902] | 120%
35 | O=C(O)C1CSC(c2cccnc2)N1 (stereo not drawn) [CBK260910] | 111%
36 | O=C(Nc1cccc2c(NC(=O)C3CC3c3ccccc3)cccc12)C1CC1c1ccccc1 (stereo not drawn) [CBK260911] | 99.1%
